Legend:
Experiment in all cases: NCI-60 SRB screening (one-dose and five-dose)
Assay type in all cases: cell-based, human
COLO 205 = details: 48 h
How it was run: (§1)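 Spectrophotometric SRB end point; 48-h drug exposure; percent of untreated-control growth reported.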

MCF7 = details: 48 h
How it was run: as §1

A498 = details: 48 h
How it was run: (§2)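 Growth inhibition is scored with sulforhodamine B after 48 h of continuous compound exposure. An MG_MID averages each parameter over the whole cell panel, insensitive lines being counted at the top tested concentration.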

SK-OV-3 = details: 48 h
How it was run: as §1

MDA-MB-231/ATCC = details: 48 h
How it was run: as §1

PC-3 = details: 48 h
How it was run: as §1

RXF 393 = details: 48 h
How it was run: as §2

HCC-2998 = details: 48 h
How it was run: (§3)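 After a 48-h incubation with compound, cellular protein was stained with SRB and growth estimated by spectrophotometry relative to untreated controls.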

SK-MEL-5 = details: 48 h
How it was run: as §1

LOX IMVI = details: 48 h
How it was run: as §2

OVCAR-5 = details: 48 h
How it was run: as §1

OVCAR-4 = details: 48 h
How it was run: as §3

HL-60(TB) = details: 48 h
How it was run: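 Test agents were applied at one concentration; 48 h later, sulforhodamine B staining quantified growth as a percentage of controls receiving no agent.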

NCI/ADR-RES = details: 48 h
How it was run: as §1

NCI-H226 = details: 48 h
How it was run: as §1

786-0 = details: 48 h
How it was run: as §1

IGROV1 = details: 48 h
How it was run: as §3

MOLT-4 = details: 48 h
How it was run: as §2

K-562 = details: 48 h
How it was run: as §2

SF-268 = details: 48 h
How it was run: as §2

NCI-H322M = details: 48 h
How it was run: as §2

UACC-62 = details: 48 h
How it was run: as §1

SR = details: Homo sapiens, five dose 0.01–100 μM, 48 h
How it was run: as §2

NCI-H460 = details: 48 h
How it was run: as §1

CAKI-1 = details: 48 h
How it was run: as §3

SF-539 = details: 48 h
How it was run: as §1

EKVX = details: 48 h
How it was run: as §1

MDA-MB-468 = details: 48 h
How it was run: as §1

HOP-62 = details: 48 h
How it was run: as §1

TK-10 = details: 48 h
How it was run: as §2

BT-549 = details: 48 h
How it was run: as §2

KM-12 = details: 48 h
How it was run: as §1

SN12C = details: 48 h
How it was run: as §2

CCRF-CEM = details: 48 h
How it was run: as §3

SW-620 = details: 48 h
How it was run: as §1

SK-MEL-2 = details: 48 h
How it was run: as §3

HT29 = details: 48 h
How it was run: as §3

NCI-H23 = details: 48 h
How it was run: as §3

HOP-92 = details: 48 h
How it was run: as §3

DU-145 = details: 48 h
How it was run: as §3

[1] = Homo sapiens, five dose 0.01–100 μM

With `C[C@H]1[C@@H]2[C@H]3CC[C@@H]4[C@@]5(C)C/C(=C\c6cccnc6)C(=O)C(C)(C)[C@@H]5CC[C@@]4(C)[C@]3(C)CC[C@]23CO[C@@]1(C)[C@@H](C(=O)/C=C/c1cccnc1)C3` [Compound 6, 3-Oxo-2-(3-pyridinylidene)-21-[3-(2E-pyridinyl)-prop-2-en-1-one]-20β,28-epoxy-18α,19βH-ursane] as the molecule, how does the “Growth Percent” value (COLO 205; COLO 205, 10 μM) read?
The value was −56.84%.

And the GI50 (COLO 205; Homo sapiens, COLO 205, five dose 0.01–100 μM)?
Its GI50 is 1430 nM.

And the GI50 (MCF7; Homo sapiens, MCF7, five dose 0.01–100 μM)?
The GI50 was 910 nM.

What about the “Growth Percent” value (MCF7; MCF7, 10 μM) of the same molecule?
Its value is 9.88%.

What about the “Growth Percent” value (A498; A498, 10 μM) of the same molecule?
Its value is −59.07%.

What about the GI50 (A498; Homo sapiens, A498, five dose 0.01–100 μM) of the same molecule?
The GI50 was 780 nM.

And the GI50 (SK-OV-3; Homo sapiens, SK-OV-3, five dose 0.01–100 μM)?
Its GI50 is 5900 nM.

What about the “Growth Percent” value (SK-OV-3; SK-OV-3, 10 μM) of the same molecule?
The value was 58.93%.

And the “Growth Percent” value (MDA-MB-231/ATCC; 10 μM)?
Its value is −30.71%.

What about the GI50 (MDA-MB-231/ATCC; [1]) of the same molecule?
Its GI50 is 1030 nM.

What about the GI50 (PC-3; Homo sapiens, PC-3, five dose 0.01–100 μM) of the same molecule?
Its GI50 is 260 nM.

And the “Growth Percent” value (PC-3; PC-3, 10 μM)?
The value was −3.56%.

What about the GI50 (RXF 393; Homo sapiens, RXF 393, five dose 0.01–100 μM) of the same molecule?
Its GI50 is 830 nM.

What about the “Growth Percent” value (RXF 393; RXF 393, 10 μM) of the same molecule?
Its value is −91.75%.

And the “Growth Percent” value (HCC-2998; HCC-2998, 10 μM)?
Its value is −67.18%.

What about the GI50 (HCC-2998; Homo sapiens, HCC-2998, five dose 0.01–100 μM) of the same molecule?
The GI50 was 890 nM.

And the GI50 (SK-MEL-5; Homo sapiens, SK-MEL-5, five dose 0.01–100 μM)?
The GI50 was 820 nM.

And the “Growth Percent” value (SK-MEL-5; SK-MEL-5, 10 μM)?
The value was −82.25%.

What about the “Growth Percent” value (LOX IMVI; 10 μM) of the same molecule?
Its value is −85.19%.

What about the GI50 (LOX IMVI; [1]) of the same molecule?
The GI50 was 890 nM.

And the GI50 (OVCAR-5; Homo sapiens, OVCAR-5, five dose 0.01–100 μM)?
The GI50 was 1460 nM.

And the “Growth Percent” value (OVCAR-5; OVCAR-5, 10 μM)?
The value was −4.00%.

What about the GI50 (OVCAR-4; Homo sapiens, OVCAR-4, five dose 0.01–100 μM) of the same molecule?
The GI50 was 1490 nM.

What about the “Growth Percent” value (OVCAR-4; OVCAR-4, 10 μM) of the same molecule?
Its value is 18.62%.

What about the “Growth Percent” value (HL-60(TB); 10 μM) of the same molecule?
Its value is 14.49%.

What about the GI50 (HL-60(TB); [1]) of the same molecule?
The GI50 was 560 nM.

What about the “Growth Percent” value (NCI/ADR-RES; 10 μM) of the same molecule?
The value was 2.97%.

And the GI50 (NCI/ADR-RES; [1])?
The GI50 was 1700 nM.

What about the GI50 (NCI-H226; Homo sapiens, NCI-H226, five dose 0.01–100 μM) of the same molecule?
Its GI50 is 1020 nM.

What about the “Growth Percent” value (NCI-H226; NCI-H226, 10 μM) of the same molecule?
The value was −13.51%.

And the “Growth Percent” value (786-0; 786-0, 10 μM)?
The value was −38.97%.

What about the GI50 (786-0; Homo sapiens, 786-0, five dose 0.01–100 μM) of the same molecule?
The GI50 was 920 nM.

And the GI50 (IGROV1; Homo sapiens, IGROV-1, IGROV1, five dose 0.01–100 μM)?
Its GI50 is 960 nM.

And the “Growth Percent” value (IGROV1; IGROV1, 10 μM)?
The value was 1.25%.

And the GI50 (MOLT-4; Homo sapiens, MOLT-4, five dose 0.01–100 μM)?
Its GI50 is 170 nM.

And the “Growth Percent” value (MOLT-4; MOLT-4, 10 μM)?
Its value is 16.72%.

What about the GI50 (K-562; Homo sapiens, K562, K-562, five dose 0.01–100 μM) of the same molecule?
Its GI50 is 30 nM.

And the “Growth Percent” value (K-562; K-562, 10 μM)?
The value was 6.51%.

What about the GI50 (SF-268; Homo sapiens, SF-268, five dose 0.01–100 μM) of the same molecule?
The GI50 was 1310 nM.

What about the “Growth Percent” value (SF-268; SF-268, 10 μM) of the same molecule?
Its value is 7.10%.

And the “Growth Percent” value (NCI-H322M; 10 μM)?
Its value is 46.39%.

What about the GI50 (NCI-H322M; [1]) of the same molecule?
Its GI50 is 1820 nM.

What about the GI50 (UACC-62; Homo sapiens, UACC-62, five dose 0.01–100 μM) of the same molecule?
Its GI50 is 600 nM.

What about the “Growth Percent” value (UACC-62; UACC-62, 10 μM) of the same molecule?
The value was −25.57%.

What about the GI50 (SR) of the same molecule?
Its GI50 is 160 nM.

What about the GI50 (NCI-H460; Homo sapiens, NCI-H460, five dose 0.01–100 μM) of the same molecule?
Its GI50 is 890 nM.

What about the “Growth Percent” value (NCI-H460; NCI-H460, 10 μM) of the same molecule?
Its value is −45.33%.

And the “Growth Percent” value (CAKI-1; CAKI-1, 10 μM)?
The value was 9.32%.

What about the GI50 (CAKI-1; Homo sapiens, CAKI-1, five dose 0.01–100 μM) of the same molecule?
Its GI50 is 1420 nM.

And the GI50 (SF-539; Homo sapiens, SF-539, five dose 0.01–100 μM)?
Its GI50 is 1020 nM.

What about the “Growth Percent” value (SF-539; SF-539, 10 μM) of the same molecule?
Its value is −32.36%.

What about the “Growth Percent” value (EKVX; 10 μM) of the same molecule?
Its value is −1.58%.

And the GI50 (EKVX; [1])?
Its GI50 is 1720 nM.

And the GI50 (MDA-MB-468; Homo sapiens, MDA-MB-468, five dose 0.01–100 μM)?
Its GI50 is 860 nM.

What about the “Growth Percent” value (MDA-MB-468; MDA-MB-468, 10 μM) of the same molecule?
Its value is −5.83%.

And the “Growth Percent” value (HOP-62; HOP-62, 10 μM)?
Its value is −13.55%.

And the GI50 (HOP-62; Homo sapiens, HOP-62, five dose 0.01–100 μM)?
The GI50 was 1560 nM.

What about the GI50 (TK-10; Homo sapiens, TK-10, five dose 0.01–100 μM) of the same molecule?
The GI50 was 1830 nM.

And the “Growth Percent” value (TK-10; TK-10, 10 μM)?
Its value is −14.49%.

And the “Growth Percent” value (BT-549; BT-549, 10 μM)?
Its value is −20.09%.

And the GI50 (BT-549; Homo sapiens, BT-549, five dose 0.01–100 μM)?
The GI50 was 730 nM.

What about the GI50 (KM-12; Homo sapiens, KM12, KM-12, five dose 0.01–100 μM) of the same molecule?
The GI50 was 910 nM.

What about the “Growth Percent” value (KM-12; KM-12, 10 μM) of the same molecule?
Its value is −55.61%.

What about the “Growth Percent” value (SN12C; 10 μM) of the same molecule?
The value was −17.67%.

And the GI50 (SN12C; [1])?
Its GI50 is 940 nM.

What about the “Growth Percent” value (CCRF-CEM; 10 μM) of the same molecule?
The value was 17.92%.

And the GI50 (CCRF-CEM; [1])?
The GI50 was 170 nM.

What about the GI50 (SW-620; Homo sapiens, SW-620, five dose 0.01–100 μM) of the same molecule?
Its GI50 is 980 nM.

And the “Growth Percent” value (SW-620; SW-620, 10 μM)?
The value was −26.39%.

What about the GI50 (SK-MEL-2; Homo sapiens, SK-MEL-2, five dose 0.01–100 μM) of the same molecule?
The GI50 was 1300 nM.

And the “Growth Percent” value (SK-MEL-2; SK-MEL-2, 10 μM)?
The value was −25.53%.

And the “Growth Percent” value (HT29; HT29, 10 μM)?
The value was 26.36%.

And the GI50 (HT29; Homo sapiens, HT-29, HT29, five dose 0.01–100 μM)?
Its GI50 is 1500 nM.

And the GI50 (NCI-H23; Homo sapiens, NCI-H23, five dose 0.01–100 μM)?
Its GI50 is 1040 nM.

And the “Growth Percent” value (NCI-H23; NCI-H23, 10 μM)?
Its value is −48.71%.

What about the “Growth Percent” value (HOP-92; HOP-92, 10 μM) of the same molecule?
The value was −19.97%.

What about the GI50 (HOP-92; Homo sapiens, HOP-92, five dose 0.01–100 μM) of the same molecule?
The GI50 was 820 nM.

What about the “Growth Percent” value (DU-145; DU-145, 10 μM) of the same molecule?
The value was −28.80%.

What about the GI50 (DU-145; Homo sapiens, DU-145, five dose 0.01–100 μM) of the same molecule?
The GI50 was 930 nM.
